Source: US20170348258A1, “3-Amino Benzamide Derivative Serving As B-Lactam Auxiliary Antibiotic, Preparation Method and Use Thereof” (THE HONG KONG POLYTECHNIC UNIVERSITY, priority 2014, published 2017)
≈ marks a conversion by molar mass, not a printed value.

Legend:
B. subtilis 168 = assay: Antibacterial susceptibility test (MIC, microbroth dilution); format: cell-based; settings: Bacillus subtilis, 168; 18 hours at 37° C., >90% inhibition of bacterial growth; read-out: MIC, BS 168
Source text: (§1) The bacterial strains used in microbial susceptibility test were E. coli, S. aureus 29213 and B. subtilis 168. E. coli and S. aureus 29213 were obtained from the laboratory of the Hong Kong Polytechnic University. B. subtilis 168 was purchased from American Type Culture Collection (USA). The mammalian cell lines L929 (mouse peritoneal fibroblast), LCC6 (a wild type breast cancer cell line), LCC6MDR (P-gp over-expressed breast cancer cell line) were stocks in our department. Nutrient Agar, tryptone and yeast extract were purchased from Oxoid Limited (Nepean, Ontario, Canada). Luria-Bertani (LB) medium was prepared from 2 g tryptone, 1 g yeast extract, and 2 g sodium chloride in 200 ml deionized water and sterilized. Müller-Hinton broth (MHB), cation-adjusted Müller-Hinton broth (MHB) and trypticase soy broth (TSB) for microbial susceptibility test were purchased from Becton, Dickinson and Company (New Jersey, USA). A microplate reader (Bio-Rad Laboratories Model 680) is used to measure bacterial growth and cytotoxicity. An Olympus FSX100® Bio Imaging Navigator Microscope was used to observe the morphology of B. subtilis cell.
(§2) The minimum inhibitory concentration (MIC) of each compound was determined using microbroth dilution method according to the National Committee for Clinical Laboratory Standards (CLSI) guidelines. All Compounds were dissolved in DMSO and diluted in a serial two-fold manner. A single colony of bacterial strain on a TSB agar plate was inoculated in 5 mL MHB or CA-MHB. The bacterial cells were incubated at 37° C. until the optimal density (OD600) of the growing cells reached 1.0. The cells were then diluted to a final concentration of approximately 5×10^5 CFU/mL in a serial two-fold manner in a 96-well microtiter plate (Iwaki, Japan). Compound 3 and PC190723 were used as positive controls. […] Table 1 below summarizes the MIC of all synthesized compounds.

E. coli = assay: as above; format: cell-based; settings: Escherichia coli; 18 hours at 37° C., >90% inhibition of bacterial growth
Source text: as §1, §2

S. aureus 29213 = assay: as above; format: cell-based; settings: Staphylococcus aureus, 29213; 18 hours at 37° C., >90% inhibition of bacterial growth
Source text: as §1, §2

[1] = Cytotoxicity test (MTS/PMS); format: cell-based; settings: human, LCC6MDR cells (P-gp over-expressed breast cancer cell line); 3 days at 37° C.
Source text: as §1, with “cell. The cell lines used in cytotoxicity test were stocks in our department. In this assay, a mouse fibroblast cell line (L929), a wild type breast cancer cell line (LCC6) and a P-gp-over-expressed breast cancer cell line (LCC6MDR) were mixed with compounds of various concentrations and made up to a final volume of 100 μL in 96-well plates. The cells were then incubated at 37° C. for 3 days. […] The MTS/PMS mixture (10 μL) was added into each well, and the plate was incubated at 37° C. for 2 hours. The absorbance at 490 nm was then measured with a microplate absorbance reader (Bio-Rad). The IC50 values were calculated using GraphPad (Prism 4.0). The selective index of each compound was calculated from the ratio between the toxicity level of L929 and the MIC value of S. aureus 29213. […] Two promising compounds […] were chosen to test on three mammalian cell lines.” for “cell.”

[2] = test system: L929 (mouse fibroblast cell line); assay: Cytotoxicity test (MTS/PMS); format: cell-based; settings: L929, 72 h, 3 days at 37° C.
Source text: as §1, with “cell. The cell lines used in cytotoxicity test were stocks in our department. In this assay, a mouse fibroblast cell line (L929), a wild type breast cancer cell line (LCC6) and a P-gp-over-expressed breast cancer cell line (LCC6MDR) were mixed with compounds of various concentrations and made up to a final volume of 100 μL in 96-well plates. The cells were then incubated at 37° C. for 3 days. […] The MTS/PMS mixture (10 μL) was added into each well, and the plate was incubated at 37° C. for 2 hours. The absorbance at 490 nm was then measured with a microplate absorbance reader (Bio-Rad). The IC50 values were calculated using GraphPad (Prism 4.0). The selective index of each compound was calculated from the ratio between the toxicity level of L929 and the MIC value of S. aureus 29213. […] Two promising compounds […] were chosen to test on three mammalian cell lines.” for “cell.”

[3] = test system: LCC6 (wild type breast cancer cell line); assay: Cytotoxicity test (MTS/PMS); format: cell-based; settings: LCC-6, 72 h; 3 days at 37° C.
Source text: as §1, with “cell. The cell lines used in cytotoxicity test were stocks in our department. In this assay, a mouse fibroblast cell line (L929), a wild type breast cancer cell line (LCC6) and a P-gp-over-expressed breast cancer cell line (LCC6MDR) were mixed with compounds of various concentrations and made up to a final volume of 100 μL in 96-well plates. The cells were then incubated at 37° C. for 3 days. […] The MTS/PMS mixture (10 μL) was added into each well, and the plate was incubated at 37° C. for 2 hours. The absorbance at 490 nm was then measured with a microplate absorbance reader (Bio-Rad). The IC50 values were calculated using GraphPad (Prism 4.0). The selective index of each compound was calculated from the ratio between the toxicity level of L929 and the MIC value of S. aureus 29213. […] Two promising compounds […] were chosen to test on three mammalian cell lines.” for “cell.”

MRSA strain USA300#2960 = assay: Fractional Inhibitory Concentration Index (FICI) determination; format: cell-based, S. aureus
Experimental: The bacterial strains used in this study were clinically isolated MRSA strains USA300#757 and #2960 which were obtained from our laboratory. Determination of the Fractional Inhibitory Concentration Index (FICI) was adopted by the Müller-Hinton broth (MHB) dilution method as previously described. Twelve serial two-fold dilutions of PC190723, F332 and F361 were prepared in the 96-well microplate with concentration ranging from 512 to 0.25 μg/mL. A series of two-fold dilutions of ampicillin, cloxacillin and cefuroxime were also prepared following the same procedure. Lastly, the compounds and the β-lactams were mixed at a 1:1 ratio and subjected to two-fold dilution as described previously. Each microplate well contained 100 μL of MHB supplemented with compounds alone, β-lactams alone or the mixture of compounds and β-lactams. Overnight cultures of S. aureus in the Müller-Hinton broth was diluted to OD595 of 0.08-0.1 in saline and added in each of the microplate well. The plates were incubated at 37° C. for 20 h. All tests were performed in duplicate and the inhibition of bacterial growth was determined by visualization. The FICI of compounds and β-lactams were calculated as followed: FICI=(MIC of combination of compound and β-lactam/MIC of compound alone)+(MIC of combination of compound and β-lactam/MIC of β-lactam alone).

MRSA strain 256 = assay: FICI of F332 with antibiotics; format: cell-based, S. aureus
MRSA strain 2224 = assay: FICI of F332 with antibiotics; format: cell-based, S. aureus

Compound | MIC (B. subtilis 168) | MIC (E. coli) | MIC (S. aureus 29213) | IC50 at 3 days [1] | IC50 [2] | IC50 [3] | FICI with Cefotaxime (MRSA strain USA300#2960) | FICI with Meropenem (MRSA strain USA300#2960) | further results
CCCCCCCCCN(C)c1ccc(F)c(C(N)=O)c1F [Compound F361, 2,6-difluoro-3-(methyl(nonyl)amino)benzamide] | 1.57 µM (≈ 0.49 µg/mL) | > 100 µM | 3.13 µM (≈ 0.978 µg/mL) | 52 µM | 60 µM | 60 µM | 1.00 | 0.28 | 
CCCCCCCCCNc1ccc(F)c(C(N)=O)c1F [Compound F332, 2,6-difluoro-3-(nonylamino)benzamide] | 3.13 µM (≈ 0.934 µg/mL) | > 100 µM | 12.5 µM (≈ 3.73 µg/mL) | > 100 µM | > 100 µM | 78 µM | 0.38 | 0.28 | FICI with Ampicillin (MRSA strain USA300#2960): 0.28; FICI with Cefuroxime (MRSA strain USA300#2960): 0.38; FICI with Cloxacillin (MRSA strain USA300#2960): 1.02; FICI of F332 combined with Amoxicillin (MRSA strain 256): 0.08; FICI of F332 combined with Cefuroxime (MRSA strain 256): 0.01; FICI of F332 combined with Cloxacillin (MRSA strain 256): 0.13; FICI of F332 combined with Meropenem (MRSA strain 256): 4.01; FICI of F332 combined with Meticillin (MRSA strain 256): 0.04; FICI of F332 combined with Amoxicillin (MRSA strain 2224): 0.19; FICI of F332 combined with Cefuroxime (MRSA strain 2224): 0.25; FICI of F332 combined with Cloxacillin (MRSA strain 2224): 0.25; FICI of F332 combined with Meropenem (MRSA strain 2224): 4.01; FICI of F332 combined with Meticillin (MRSA strain 2224): 0.13
